Legend:
[1] = Preliminary repeat-dose toxicity in normal mice; type: in vivo; conditions: weekly, four IV doses, BALB/c mice
Description: The toxicity of Hb-SMCC-DM1 with an (Prepared using one-step method in Example 5, MDR of 3.0) is evaluated in repeat-dose study in normal BALB/c mice. Briefly, mice (n=3, females/group) are administered with unconjugated-DM1 and Hb-SMCC-DM1 weekly for a total of four IV doses at PBS, 2.5 mg/kg of unconjugated-DM1, and 42, 84, 126, and 168 mg/kg of Hb-SMCC-DM1, respectively. Body weights are recorded at every 3 days.

cancer cell lines = assay: MTT cytotoxicity assay on cancer cell lines; type: cell-based; conditions: various cancer cells
Description: Cancer cells are cultured in medium (Invitrogen) with 10% Fetal bovine serum (FBS), 100 U/mL penicillin and 100 μg/mL streptomycin at 37° C. For normoxic condition, cells are incubated with ambient O2 concentration and 5% CO2, for hypoxic condition, cells are incubated with 0.1-0.5% O2 (Quorum FC-7 automatic CO2/O2/N2 gas mixer) and 5% CO2.
Cell viability is measured using a 3-(4,5-dimethylthiazol-2-yl)-2,5-diphenyltetrazolium bromide (MTT) proliferation assay. Briefly, cancer cell lines (e.g. HCT116, 4T1, and SMMC7721) are seeded in a 96-well flat-bottomed microplate and cultured in 100 μL growth medium at 37° C. and 5% CO2 for 24 h. Cell culture medium in each well is then replaced by 100 μL cell growth medium, containing either no drug, DM1 alone or modified hemoglobin-based cytotoxic agents at series concentrations. Incubation of drugs for 24 h, cell culture medium containing drugs is replaced by 100 μL MTT labeling reagent (1 mg/mL in PBS solution) in each well and incubation for further 4 h at 37° C. The medium is removed gently, and 50 μL DMSO is then added to each well as solubilizing agent to dissolve the formazan crystals completely. The absorbance at the wavelength of 570 nm is measured by iMark Microplate Absorbance Spectrophotometer, and each data point represents the means±SD from triplicate wells.

[2] = Biodistribution of AF750-labeled agents in normal mice; type: in vivo, normal BALB/c mice; conditions: 72 h post-injection, 40 mg/kg intravenously
Description: Biodistribution of Hb-SMCC-DM1 (Prepared using one-step method in Example 5, MDR of 3.0) in normal mice is performed by using normal mice model. Briefly, normal BALB/c mice are injected intravenously with 40 mg/kg of Hb-AF750 and Hb-SMCC-DM1-AF750, respectively, and imaged serially from 2 hour to 72 hour post-injection. The mice are sacrificed at 72 hour of drug administration to collect various kinds of organ for imaging.

Compound	tolerated dose [1]	IC50 (cancer cell lines) [µM]	location of fluorescence signal (biodistribution) [2]
COc1cc2cc(c1Cl)N(C)C(=O)C[C@H](OC(=O)[C@H](C)N(C)C(=O)CCS)[C@]1(C)O[C@H]1[C@H](C)[C@@H]1C[C@@](O)(NC(=O)O1)[C@H](OC)/C=C/C=C(\C)C2 [unconjugated-DM1, mertansine (DM1)]	up to 2.5 mg/kg		
hemoglobin		> 10	mainly in liver and kidney

Reference: patent publication US11576978B2, “Hemoglobin-based therapeutic agents” (priority 2019, dated 2023)
